“Also recorded” adds a separate entry of the source.
What was measured:
KIT = KIT (Homo sapiens, UniProt P10721); test: Reaction Biology Corp kinase assay at Km-ATP (Figure 1C), KIT
[1] = test system: primary patient FLT3 D835 AML circulating blasts; test: Colony-forming assay, primary patient FLT3-D835 AML blasts; type: cell-based, human
Text: Primary AML blood samples and/or marrow aspirates were obtained on an IRB-approved protocol at the University of California, San Francisco. Informed consent was obtained in accordance with the Declaration of Helsinki. Mononuclear cells were purified by density centrifugation (Ficoll–Paque Plus, GE Healthsciences) before cryopreservation in 10% (vol/vol) DMSO or FCS (primary ITD and D835-mutant assays, Figure 3A–C) or immediate use in assays (Normal BM and SPB, Figure 3D–F). Normal BM and stimulated peripheral blood (SPB) samples were collected from donors at the UCSF oncology/hematology division. Cells were then suspended in MethoCult methylcellulose (Stem Cell Technologies, product no. H4435 Enriched, Canada) in 15-ml Falcon tubes, vigorously vortexed, bubbles settled over 10 min. Triplicates then plated via blunt-nosed syringe (1.1 ml each) into 3-cm dishes, avoiding bubble generation, and each dish placed in a larger 10-cm dish with water trough in an incubator (37°C, 5% CO2) for 13–14 days. Colonies were counted individually using traditional microscopy. CFU and BFU types reported separately (CFU-GEMM colonies counted as one of each).

CSF1R = CSF1R (Homo sapiens, UniProt P07333); test: Reaction Biology Corp kinase assay at Km-ATP (Figure 1C), CSF1R
CSF1R, sequence (P07333 20-972): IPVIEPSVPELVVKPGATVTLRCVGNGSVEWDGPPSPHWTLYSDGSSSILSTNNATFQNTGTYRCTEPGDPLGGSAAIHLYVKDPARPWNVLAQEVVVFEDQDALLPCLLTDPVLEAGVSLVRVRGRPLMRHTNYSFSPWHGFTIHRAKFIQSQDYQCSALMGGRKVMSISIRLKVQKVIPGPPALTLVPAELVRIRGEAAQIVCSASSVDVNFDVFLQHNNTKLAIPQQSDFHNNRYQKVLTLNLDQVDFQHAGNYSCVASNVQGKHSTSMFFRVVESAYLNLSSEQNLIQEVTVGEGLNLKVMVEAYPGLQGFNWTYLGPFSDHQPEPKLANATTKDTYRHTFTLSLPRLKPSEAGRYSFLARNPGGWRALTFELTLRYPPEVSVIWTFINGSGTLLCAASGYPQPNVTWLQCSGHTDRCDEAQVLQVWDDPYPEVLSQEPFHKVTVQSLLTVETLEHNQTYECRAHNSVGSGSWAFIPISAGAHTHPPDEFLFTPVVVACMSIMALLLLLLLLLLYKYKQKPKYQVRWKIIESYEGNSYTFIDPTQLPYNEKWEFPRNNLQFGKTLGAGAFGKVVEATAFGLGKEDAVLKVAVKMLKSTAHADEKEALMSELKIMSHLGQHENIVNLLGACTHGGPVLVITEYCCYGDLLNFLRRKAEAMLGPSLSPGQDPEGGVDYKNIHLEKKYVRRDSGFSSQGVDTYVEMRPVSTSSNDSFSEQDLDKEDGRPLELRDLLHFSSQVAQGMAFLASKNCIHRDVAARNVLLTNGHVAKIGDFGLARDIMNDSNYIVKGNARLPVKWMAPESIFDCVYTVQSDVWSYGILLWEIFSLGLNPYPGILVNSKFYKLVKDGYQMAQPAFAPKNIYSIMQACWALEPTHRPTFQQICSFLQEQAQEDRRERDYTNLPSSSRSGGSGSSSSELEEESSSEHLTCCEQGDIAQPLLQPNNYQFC

FLT3 = biological target: T1, FLT3 (Homo sapiens, UniProt P36888); test: Reaction Biology Corp kinase assay at Km-ATP (Figure 1C), FLT3
T1 sequence (P36888 27-993): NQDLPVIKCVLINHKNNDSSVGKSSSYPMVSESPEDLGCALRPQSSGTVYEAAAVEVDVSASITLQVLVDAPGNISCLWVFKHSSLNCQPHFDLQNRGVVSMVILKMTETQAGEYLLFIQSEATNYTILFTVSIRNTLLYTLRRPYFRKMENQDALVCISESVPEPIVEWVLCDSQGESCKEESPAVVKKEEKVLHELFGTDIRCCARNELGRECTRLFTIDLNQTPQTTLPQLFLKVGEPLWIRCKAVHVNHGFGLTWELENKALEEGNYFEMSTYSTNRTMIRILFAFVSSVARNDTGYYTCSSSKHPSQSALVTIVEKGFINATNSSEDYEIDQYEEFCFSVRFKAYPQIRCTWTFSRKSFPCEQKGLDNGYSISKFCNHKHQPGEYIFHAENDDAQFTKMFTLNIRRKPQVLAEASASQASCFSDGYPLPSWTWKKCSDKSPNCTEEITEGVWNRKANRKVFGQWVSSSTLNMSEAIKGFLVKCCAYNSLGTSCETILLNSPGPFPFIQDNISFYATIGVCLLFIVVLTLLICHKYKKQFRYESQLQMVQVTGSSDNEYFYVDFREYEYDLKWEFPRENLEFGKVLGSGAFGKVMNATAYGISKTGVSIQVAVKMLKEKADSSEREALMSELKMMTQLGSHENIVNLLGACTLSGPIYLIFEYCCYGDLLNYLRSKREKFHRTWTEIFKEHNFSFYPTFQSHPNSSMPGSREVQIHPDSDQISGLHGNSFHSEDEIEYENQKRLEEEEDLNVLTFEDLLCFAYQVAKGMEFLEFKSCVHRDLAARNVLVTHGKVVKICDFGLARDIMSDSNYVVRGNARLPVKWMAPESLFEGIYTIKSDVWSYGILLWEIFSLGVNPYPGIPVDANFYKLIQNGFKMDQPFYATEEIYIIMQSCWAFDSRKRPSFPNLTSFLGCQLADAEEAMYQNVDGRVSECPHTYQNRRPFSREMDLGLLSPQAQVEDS

Ba/F3 FLT3 ITD + D835F = test: Ba/F3 cell viability, FLT3 ITD + D835F; type: cell-based; details: Mus musculus, Ba/F3, 48 hr, ± SEM
Procedure: (§1) Stable Ba/F3 lines were generated by retroviral spinfection with the appropriate mutated plasmid as previously described ([Smith et al., 2012]).
(§2) Exponentially growing cells (5 × 10^3 cells per well) were plated in each well of a 96-well plate with 0.1 ml of RPMI 1640 + 10% (vol/vol) FCS containing the appropriate concentration of drug in triplicate, and cell viability was assessed after 48 hr as previously described ([Smith et al., 2012]). […] Log10-scale transformation of ratios, followed by conditional formatting using xcel spreadsheet software yielded the colored diagrams shown.
(§3) Mutations isolated in the screen were engineered into pMSCVpuroFLT3–ITD by QuikChange mutagenesis (Stratagene, La Jolla, CA) as previously described ([Smith et al., 2012]).

zebrafish embryos = test: Zebrafish embryonic development / WT morphology; type: in vivo, Danio rerio (zebrafish); details: 3 dpf, drug from 6 hpf
Procedure: Figure 4. […] (N–P) Three categories of mpo transcription (N, normal; O, intermediate; P, severe) were defined based on the WISH results (three experiments). […] Scale bar equals 500 μm. Blue arrows indicate the pericardial edema, green arrows indicate tail shortening and curving, and red arrows indicate the FLT3-ITD AML mpo+ myeloid cells expansion. […] For all experiments: Zebrafish embryos were collected and kept in standard E3 medium at 28°C. Different concentrations of either drug were added to the E3 medium from 6 hr post fertilization (hpf) to 3 days post fertilization (dpf). Embryos treated with DMSO or 10 μM drug from 6 to 30 hpf were collected for mpo whole mount in situ hybridization (WISH) analysis. […] plasmid DNA containing FLT3/ITD sequence was microinjected into one-cell stage embryos, and the uninjected embryos were used as control. FLT3/ITD-injected embryos were treated with DMSO or 10 μM drug from 6 to 30 hpf.
Wild-type (WT) zebrafish were maintained under standard conditions, and embryos were staged as described ([He et al., 2014]). The study was approved by the Committee of the Use of Live Animals for Teaching and Research in The University of Hong Kong.

Ba/F3 FLT3 ITD + D839G = test: Ba/F3 cell viability, FLT3 ITD + D839G; type: cell-based; details: Mus musculus, Ba/F3, 48 hr, ± SEM
Procedure: as §1, §2, §3

K562 cells (Bcr-Abl) = test: Cell proliferation/viability assay, K562; type: cell-based; details: Homo sapiens, 48 hr
Procedure: as §2

KIT, sequence (P10721 26-976): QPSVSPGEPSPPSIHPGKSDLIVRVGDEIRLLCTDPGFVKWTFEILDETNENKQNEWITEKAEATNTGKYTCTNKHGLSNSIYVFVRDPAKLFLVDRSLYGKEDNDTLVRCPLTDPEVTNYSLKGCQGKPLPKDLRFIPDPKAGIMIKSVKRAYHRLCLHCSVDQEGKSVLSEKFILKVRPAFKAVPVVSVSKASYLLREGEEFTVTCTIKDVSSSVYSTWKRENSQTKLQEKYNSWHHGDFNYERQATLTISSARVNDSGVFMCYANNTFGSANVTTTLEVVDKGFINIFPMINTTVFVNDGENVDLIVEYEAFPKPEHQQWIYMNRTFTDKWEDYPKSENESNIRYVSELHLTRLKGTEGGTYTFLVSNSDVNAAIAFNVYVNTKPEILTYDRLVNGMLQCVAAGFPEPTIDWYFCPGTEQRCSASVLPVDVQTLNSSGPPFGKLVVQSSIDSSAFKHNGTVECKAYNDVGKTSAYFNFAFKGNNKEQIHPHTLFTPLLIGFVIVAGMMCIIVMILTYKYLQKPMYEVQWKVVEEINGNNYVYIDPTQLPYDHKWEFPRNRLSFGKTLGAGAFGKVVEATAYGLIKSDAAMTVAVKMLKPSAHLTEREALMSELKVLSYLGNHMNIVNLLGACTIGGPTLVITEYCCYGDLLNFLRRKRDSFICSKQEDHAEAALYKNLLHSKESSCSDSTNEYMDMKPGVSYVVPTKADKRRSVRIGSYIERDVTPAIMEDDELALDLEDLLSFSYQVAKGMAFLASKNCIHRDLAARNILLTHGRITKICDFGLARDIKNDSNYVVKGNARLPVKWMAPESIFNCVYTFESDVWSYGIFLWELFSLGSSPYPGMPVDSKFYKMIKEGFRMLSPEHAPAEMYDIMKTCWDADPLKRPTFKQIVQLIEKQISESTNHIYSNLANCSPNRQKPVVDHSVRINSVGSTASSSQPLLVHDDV

CC1NC(=O)c2c1c1c3ccccc3n(CCCN)c1c1[nH]c3ccccc3c21 (stereo not shown) [Star 27]
IC50 (KIT): 1020 nM | inhibition at 1 µM ([1]; Homo sapiens, at 1000 nM, read-out: inhibition of colonies, FLT3-D835 (ITD−) blasts): ~60% | raw colony numbers, FLT3 D835Y blasts ([1]; at 1,000 nM, ca. 120 for DMSO plates): ~50 | IC50 (CSF1R): > 9880 nM | CSF1R/FLT3 IC50 ratio (CSF1R; ratio of Figure 1C IC50s): > 16,500 | IC50 (FLT3): < 0.6 nM | IC50 (Ba/F3 FLT3 ITD + D835F): 53 ± 36 nM | effect on zebrafish embryonic development / morphology (zebrafish embryos): no change in heart and tail morphology; also recorded: no noticeable morphological defects up to 10 μM | IC50 (Ba/F3 FLT3 ITD + D839G): 80 ± 41 nM | IC50 (K562 cells (Bcr-Abl)): > 5000 nM
